Measurements taken from ChEMBL document CHEMBL5625200 (Eur J Med Chem, 2023).

Target: T1, Endothelin-1 receptor (Homo sapiens, UniProt P25101)
T1 sequence (P25101 whole entry): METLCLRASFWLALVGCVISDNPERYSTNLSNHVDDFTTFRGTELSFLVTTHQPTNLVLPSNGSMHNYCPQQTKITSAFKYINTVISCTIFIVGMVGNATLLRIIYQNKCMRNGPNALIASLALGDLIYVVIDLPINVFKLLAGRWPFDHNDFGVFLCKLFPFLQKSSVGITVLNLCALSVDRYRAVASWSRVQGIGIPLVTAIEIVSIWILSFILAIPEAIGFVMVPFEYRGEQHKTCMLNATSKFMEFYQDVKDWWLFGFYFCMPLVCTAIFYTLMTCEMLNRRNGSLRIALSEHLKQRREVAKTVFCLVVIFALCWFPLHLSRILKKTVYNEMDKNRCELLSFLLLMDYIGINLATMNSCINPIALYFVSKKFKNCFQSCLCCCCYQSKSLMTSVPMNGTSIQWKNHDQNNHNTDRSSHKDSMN
Experiment: Antagonist activity against human ET-1 by ELISA analysis
Type: functional

Structure (SMILES) | IC50 [nM]
COc1ccccc1Oc1c(NS(C)(=O)=O)nc(-c2ncccn2)nc1OCC1CC1 | 2.38
CC#CCOc1nc(-c2ncccn2)nc(NS(=O)(=O)c2ccc(C)cc2)c1Oc1ccccc1OC | 2.99
C=CCCOc1nc(-c2ncccn2)nc(NS(=O)(=O)c2ccc(C)cc2)c1Oc1ccccc1OC | 3.78
C=CCCOc1nc(-c2ncccn2)nc(NS(=O)(=O)c2ccccc2)c1Oc1ccccc1OC | 3.78
COc1ccccc1Oc1c(NS(=O)(=O)c2ccccc2)nc(-c2ncccn2)nc1OCC1CCCN(C)C1 (stereo not given) | 3.38
COc1ccccc1Oc1c(NS(=O)(=O)c2ccc(C(C)(C)C)cc2)nc(-c2ncccn2)nc1OCC1CC1 | 1.22
COc1ccccc1Oc1c(NS(=O)(=O)c2ccc(C)cc2)nc(-c2ncccn2)nc1OCC1CCC1 | 3.22
COc1ccccc1Oc1c(NS(=O)(=O)c2ccc(C)cc2)nc(-c2ncccn2)nc1OCC1CC1 | 1.21
COc1ccccc1Oc1c(NS(=O)(=O)c2ccc(C(C)(C)C)cc2)nc(-c2ncccn2)nc1OCC1CCCN1C (stereo not given) | 1.46
COc1ccccc1Oc1c(NS(C)(=O)=O)nc(-c2ncccn2)nc1OCC1CCCCN1C (stereo not given) | 2.21
CC/C=C/CCOc1nc(-c2ncccn2)nc(NS(=O)(=O)c2ccc(C(C)(C)C)cc2)c1Oc1ccccc1OC | 3.99
COc1ccccc1Oc1c(NS(=O)(=O)c2ccc(C)cc2)nc(-c2ncccn2)nc1OCC1CCCN(C)C1 (stereo not given) | 2.46
CC/C=C/CCOc1nc(-c2ncccn2)nc(NS(=O)(=O)c2ccc(C)cc2)c1Oc1ccccc1OC | 3.92
COc1ccccc1Oc1c(NS(=O)(=O)c2ccc(C(C)(C)C)cc2)nc(-c2ncccn2)nc1OCC1CCC1 | 1.05
C=CCCOc1nc(-c2ncccn2)nc(NS(C)(=O)=O)c1Oc1ccccc1OC | 2.41
CC#CCOc1nc(-c2ncccn2)nc(NS(=O)(=O)c2ccccc2)c1Oc1ccccc1OC | 4.33
COc1ccccc1Oc1c(NS(=O)(=O)c2ccc(C)cc2)nc(-c2ncccn2)nc1OCC1CCCN1C (stereo not given) | 3.53
COc1ccccc1Oc1c(NS(C)(=O)=O)nc(-c2ncccn2)nc1OCC1CCCN(C)C1 (stereo not given) | 2.01
COc1ccccc1Oc1c(NS(=O)(=O)c2ccccc2)nc(-c2ncccn2)nc1OCCC(C)C | 1.73
COc1ccccc1Oc1c(NS(=O)(=O)c2ccccc2)nc(-c2ncccn2)nc1OCC(F)F | 0.88

Structure (SMILES) | IC50 [nM]
CC#CCOc1nc(-c2ncccn2)nc(NS(C)(=O)=O)c1Oc1ccccc1OC | 2.13
COc1ccccc1Oc1c(NS(=O)(=O)c2ccc(C(C)(C)C)cc2)nc(-c2ncccn2)nc1OCCC(C)C | 4.78
COc1ccccc1Oc1c(NS(=O)(=O)c2ccc(C(C)(C)C)cc2)nc(-c2ncccn2)nc1OCC1CCCCN1C (stereo not given) | 2.59
COc1ccccc1Oc1c(NS(C)(=O)=O)nc(-c2ncccn2)nc1OCC1CCCC1 | 2.19
CC/C=C/CCOc1nc(-c2ncccn2)nc(NS(=O)(=O)c2ccccc2)c1Oc1ccccc1OC | 0.97
COc1ccccc1Oc1c(NS(=O)(=O)c2ccc(C)cc2)nc(-c2ncccn2)nc1OCC1CCCCN1C (stereo not given) | 1.14
COc1ccccc1Oc1c(NS(=O)(=O)c2ccc(C)cc2)nc(-c2ncccn2)nc1OCC(F)F | 4.76
COc1ccccc1Oc1c(NS(=O)(=O)c2ccc(C)cc2)nc(-c2ncccn2)nc1OCCC(C)C | 1.39
COc1ccccc1Oc1c(NS(=O)(=O)c2ccc(C(C)(C)C)cc2)nc(-c2ncccn2)nc1OCC(F)F | 0.77
COc1ccccc1Oc1c(NS(C)(=O)=O)nc(-c2ncccn2)nc1OCC(F)F | 0.47
COc1ccccc1Oc1c(NS(=O)(=O)c2ccccc2)nc(-c2ncccn2)nc1OCC1CCC1 | 1.84
COc1ccccc1Oc1c(NS(C)(=O)=O)nc(-c2ncccn2)nc1OCC1CCC1 | 1.69
COc1ccccc1Oc1c(NS(=O)(=O)c2ccccc2)nc(-c2ncccn2)nc1OCC1CC1 | 2.44
COc1ccccc1Oc1c(NS(=O)(=O)c2ccccc2)nc(-c2ncccn2)nc1OCC1CCCC1 | 2.78
COc1ccccc1Oc1c(NS(C)(=O)=O)nc(-c2ncccn2)nc1OCC1CCCN1C (stereo not given) | 2.33
COc1ccccc1Oc1c(NS(=O)(=O)c2ccc(C)cc2)nc(-c2ncccn2)nc1OCC1CCCC1 | 1.62
COc1ccccc1Oc1c(NS(=O)(=O)c2ccc(C(C)(C)C)cc2)nc(-c2ncccn2)nc1OCC1CCCN(C)C1 (stereo not given) | 1.43
COc1ccccc1Oc1c(NS(=O)(=O)c2ccc(C(C)(C)C)cc2)nc(-c2ncccn2)nc1OCC1CCCC1 | 1.15
COc1ccccc1Oc1c(NS(=O)(=O)c2ccccc2)nc(-c2ncccn2)nc1OCC1CCCCN1C (stereo not given) | 1.91
C=CCCOc1nc(-c2ncccn2)nc(NS(=O)(=O)c2ccc(C(C)(C)C)cc2)c1Oc1ccccc1OC | 1.24
